Laboratory results as given in ChEMBL document CHEMBL1201862, “PubChem BioAssay data set” (2004).
The source made the active and inactive calls.

How the values were obtained:
[1] = molecular target: T1, RNA-binding protein pos-1 (Caenorhabditis elegans, UniProt G5EF15); assay: inhibitors of POS-1/mex-3 RNA binding, dose response, biochemical, fluorescence polarization (AID 1964);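 also: purified POS-1 fused to maltose binding protein made in E. coli; potency of compounds blocking POS-1 binding to fluorescent RNA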
T1 sequence (G5EF15 whole entry): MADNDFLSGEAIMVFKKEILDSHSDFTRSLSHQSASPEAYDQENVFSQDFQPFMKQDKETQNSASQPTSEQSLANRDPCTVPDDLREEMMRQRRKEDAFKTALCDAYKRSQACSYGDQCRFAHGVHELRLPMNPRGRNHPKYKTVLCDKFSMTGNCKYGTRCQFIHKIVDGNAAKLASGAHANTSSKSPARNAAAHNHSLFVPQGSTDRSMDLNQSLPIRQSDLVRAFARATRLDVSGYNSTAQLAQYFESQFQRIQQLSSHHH

[2] = molecular target: T2, Zinc finger protein mex-5 (Caenorhabditis elegans, UniProt Q9XUB2); assay: MEX-5/TCR-2 RNA interaction inhibitors, dose response, biochemical, C. elegans, fluorescence polarization (AID 1960)
T2 sequence (Q9XUB2 whole entry): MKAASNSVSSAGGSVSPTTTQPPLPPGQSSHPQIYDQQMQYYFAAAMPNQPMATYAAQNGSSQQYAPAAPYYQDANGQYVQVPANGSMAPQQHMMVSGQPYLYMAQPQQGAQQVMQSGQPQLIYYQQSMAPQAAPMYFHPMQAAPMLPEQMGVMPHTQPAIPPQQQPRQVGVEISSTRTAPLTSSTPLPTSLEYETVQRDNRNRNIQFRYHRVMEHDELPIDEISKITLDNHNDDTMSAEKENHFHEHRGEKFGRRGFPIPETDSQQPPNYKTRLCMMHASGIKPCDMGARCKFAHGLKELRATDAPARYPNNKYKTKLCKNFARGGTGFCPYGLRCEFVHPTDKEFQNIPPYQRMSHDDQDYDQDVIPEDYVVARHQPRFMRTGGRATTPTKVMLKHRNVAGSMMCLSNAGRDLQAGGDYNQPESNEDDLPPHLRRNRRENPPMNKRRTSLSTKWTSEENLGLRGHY

[3] = molecular target: G-protein coupled receptor 55 (Homo sapiens, UniProt Q9Y2T6); assay: GPR55 antagonists blocking LPI-driven arrestin recruitment, primary screen, imaging, U2OS, beta-arrestin-GFP, LPI agonist (AID 2013); format: functional;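 also: antagonist potency measured as reduced agonist-driven arrestin aggregation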
[4] = inhibitors of intracellular T. cruzi replication, confirmation, NIH3T3 host cells, beta-gal luminescence (AID 2044); format: functional, cell-based;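 also: intracellular parasites grown in NIH/3T3 mouse fibroblasts as host cells; luminescent beta-galactosidase reporter signal from transgenic T. cruzi replicating inside host cells; inhibitors lower the luminescence signal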
[5] = cytotoxicity toward NIH3T3 fibroblasts, dose response, counter-screen, cell-based, ATP luminescence, mouse fibroblasts (AID 2010); format: functional;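 also: cells exposed to compound for about 90 hours before reading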
[6] = molecular target: DNA dC->dU-editing enzyme APOBEC-3A (Homo sapiens, UniProt P31941); assay: Dose Response confirmation of small molecule APOBEC3A DNA Deaminase Inhibitors via a fluorescence-based single-stranded DNA deaminase assay. [Related pubchem assays (depositor defined):AID493011, AID493024]; format: functional
[7] = molecular target: DNA dC->dU-editing enzyme APOBEC-3G (Homo sapiens, UniProt Q9HC16); format: functional;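 also: Dose-response counterscreen measuring inhibition of APOBEC3G DNA deaminase activity, run while confirming APOBEC3A inhibitors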
Leucine aminopeptidase = molecular target: T3, Leucine aminopeptidase (Plasmodium falciparum 3D7, UniProt Q8IL11); assay: P. falciparum M17LAP inhibitors, primary screen, biochemical, fluorogenic H-Leu-NHMec substrate, 1536-well (AID 1619); format: functional
T3 sequence (Q8IL11 whole entry): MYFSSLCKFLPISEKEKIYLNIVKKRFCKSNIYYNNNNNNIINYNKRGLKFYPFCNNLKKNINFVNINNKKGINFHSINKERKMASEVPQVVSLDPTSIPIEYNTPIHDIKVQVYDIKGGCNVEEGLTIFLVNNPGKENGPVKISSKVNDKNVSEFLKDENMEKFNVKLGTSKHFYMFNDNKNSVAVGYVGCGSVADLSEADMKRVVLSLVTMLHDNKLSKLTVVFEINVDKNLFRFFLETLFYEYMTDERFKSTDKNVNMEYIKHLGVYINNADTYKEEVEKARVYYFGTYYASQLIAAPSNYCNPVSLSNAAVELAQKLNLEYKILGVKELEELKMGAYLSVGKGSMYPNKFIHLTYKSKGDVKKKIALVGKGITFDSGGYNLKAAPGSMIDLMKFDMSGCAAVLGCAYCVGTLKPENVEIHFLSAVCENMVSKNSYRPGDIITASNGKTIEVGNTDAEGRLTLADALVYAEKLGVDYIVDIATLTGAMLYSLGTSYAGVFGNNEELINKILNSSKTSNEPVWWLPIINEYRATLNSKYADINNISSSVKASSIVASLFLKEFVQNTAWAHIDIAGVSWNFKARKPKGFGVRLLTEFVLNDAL

[8] = NIH-3T3 fibroblast cytotoxicity, dose response, cytotoxicity control, cell-based, fluorescence, Alamar Blue, secondary assay (AID 2327); format: functional;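 also: NIH-3T3 mouse fibroblasts cultured with fluconazole at 8 µg/mL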
[9] = C. albicans growth with fluconazole, confirmation, fluorescence, retest (AID 2467); format: functional, cell-based
[10] = Intein inhibitors as potential Tuberculosis drugs, a cytotoxicity screen. [Related pubchem assays (depositor defined):AID2221, AID2223, AID434968, AID435010, AID449749, AID449750, AID489010]; format: functional
[11] = molecular target: T4, Replicative DNA helicase DnaB (Mycobacterium tuberculosis, UniProt P9WMR3); assay: DnaB intein splicing inhibitors, dose response, biochemical, cell-free fluorescence (AID 449749); format: functional
T4 sequence (P9WMR3 whole entry): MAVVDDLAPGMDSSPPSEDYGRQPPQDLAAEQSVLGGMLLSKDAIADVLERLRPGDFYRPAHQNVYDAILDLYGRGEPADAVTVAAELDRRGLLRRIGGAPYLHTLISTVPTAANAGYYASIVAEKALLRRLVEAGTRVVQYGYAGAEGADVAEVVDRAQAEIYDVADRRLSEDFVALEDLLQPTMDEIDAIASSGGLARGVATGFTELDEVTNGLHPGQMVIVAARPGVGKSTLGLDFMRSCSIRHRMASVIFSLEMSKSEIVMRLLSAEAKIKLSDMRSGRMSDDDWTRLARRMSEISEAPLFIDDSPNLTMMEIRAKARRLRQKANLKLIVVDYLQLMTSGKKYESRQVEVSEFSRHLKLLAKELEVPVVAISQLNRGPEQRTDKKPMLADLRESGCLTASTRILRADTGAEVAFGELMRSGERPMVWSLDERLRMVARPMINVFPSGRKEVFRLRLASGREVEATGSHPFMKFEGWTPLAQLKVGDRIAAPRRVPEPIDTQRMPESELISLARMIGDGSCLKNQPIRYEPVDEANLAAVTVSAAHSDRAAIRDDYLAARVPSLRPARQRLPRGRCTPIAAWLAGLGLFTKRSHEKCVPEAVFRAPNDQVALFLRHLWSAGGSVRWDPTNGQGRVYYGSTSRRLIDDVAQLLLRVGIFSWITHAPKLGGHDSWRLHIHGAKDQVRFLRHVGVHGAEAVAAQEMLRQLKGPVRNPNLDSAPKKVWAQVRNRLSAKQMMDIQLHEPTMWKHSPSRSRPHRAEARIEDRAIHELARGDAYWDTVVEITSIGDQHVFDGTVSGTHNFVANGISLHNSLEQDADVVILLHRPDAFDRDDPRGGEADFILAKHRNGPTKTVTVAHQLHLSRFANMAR

[12] = molecular target: Heat shock protein HSP 90-alpha (Homo sapiens, UniProt P07900); format: functional, organism-based
Protein RecA = molecular target: T5, Protein RecA (Mycobacterium tuberculosis, UniProt P9WHJ3); assay: Fluorescence Cell-Free Homogeneous Dose Retest to Identify Inhibitors of RecA-Intein Splicing Activity. [Related pubchem assays (depositor defined):AID2097, AID2223, AID489010, AID492950]; format: functional
T5 sequence (P9WHJ3 whole entry): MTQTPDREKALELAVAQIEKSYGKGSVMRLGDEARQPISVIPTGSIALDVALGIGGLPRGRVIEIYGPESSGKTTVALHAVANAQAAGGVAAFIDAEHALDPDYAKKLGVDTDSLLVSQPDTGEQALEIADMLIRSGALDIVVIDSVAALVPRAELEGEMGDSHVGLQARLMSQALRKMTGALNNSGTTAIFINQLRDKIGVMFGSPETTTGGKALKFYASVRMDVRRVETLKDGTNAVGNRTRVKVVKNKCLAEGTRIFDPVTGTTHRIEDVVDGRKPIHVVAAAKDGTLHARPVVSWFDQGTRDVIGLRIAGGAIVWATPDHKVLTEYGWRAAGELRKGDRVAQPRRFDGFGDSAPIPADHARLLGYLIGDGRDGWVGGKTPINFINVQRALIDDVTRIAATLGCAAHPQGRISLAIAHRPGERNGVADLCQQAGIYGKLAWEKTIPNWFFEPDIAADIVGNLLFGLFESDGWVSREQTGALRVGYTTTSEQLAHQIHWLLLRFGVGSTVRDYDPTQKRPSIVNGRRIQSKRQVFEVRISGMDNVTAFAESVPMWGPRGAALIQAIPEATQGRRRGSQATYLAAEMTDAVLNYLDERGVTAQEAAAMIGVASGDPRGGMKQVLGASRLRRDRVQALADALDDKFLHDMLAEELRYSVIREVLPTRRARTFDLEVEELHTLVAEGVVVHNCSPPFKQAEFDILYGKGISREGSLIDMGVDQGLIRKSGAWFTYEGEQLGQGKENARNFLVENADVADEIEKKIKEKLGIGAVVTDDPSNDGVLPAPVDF

[13] = Shn3 3'UTR reporter inhibitors, dose response, cell-based, Clone20 osteoblasts, firefly luciferase, cherry-picked (AID 624132); format: functional;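 also: firefly luciferase luminescence from reporter carrying the Shn3 3'UTR in osteoblasts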
[14] = HepG2 cell cytotoxicity, dose response, cytotoxicity control for Shn3 inhibitor project, CellTiter-Glo, cherry-picked (AID 624134); format: functional, cell-based
[15] = control 3'UTR Renilla luciferase suppression, dose response, counter-screen for Shn3 inhibitor project, cell-based, Clone20-Shn3RL, cherry-picked (AID 624133); format: functional
Cytochrome P450 2C9 = Cytochrome P450 2C9 (Homo sapiens, UniProt P11712)
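For CC50 in this document: cells exposed to compound for 72 hours before luminescence readout.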

Sequence of DNA dC->dU-editing enzyme APOBEC-3A (P31941 whole entry): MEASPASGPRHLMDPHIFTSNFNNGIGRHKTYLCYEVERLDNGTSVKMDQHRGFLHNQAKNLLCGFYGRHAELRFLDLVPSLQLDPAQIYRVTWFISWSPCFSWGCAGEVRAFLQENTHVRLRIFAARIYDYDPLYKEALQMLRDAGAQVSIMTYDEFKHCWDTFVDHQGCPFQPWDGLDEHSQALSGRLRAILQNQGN
Sequence of DNA dC->dU-editing enzyme APOBEC-3G (Q9HC16 whole entry): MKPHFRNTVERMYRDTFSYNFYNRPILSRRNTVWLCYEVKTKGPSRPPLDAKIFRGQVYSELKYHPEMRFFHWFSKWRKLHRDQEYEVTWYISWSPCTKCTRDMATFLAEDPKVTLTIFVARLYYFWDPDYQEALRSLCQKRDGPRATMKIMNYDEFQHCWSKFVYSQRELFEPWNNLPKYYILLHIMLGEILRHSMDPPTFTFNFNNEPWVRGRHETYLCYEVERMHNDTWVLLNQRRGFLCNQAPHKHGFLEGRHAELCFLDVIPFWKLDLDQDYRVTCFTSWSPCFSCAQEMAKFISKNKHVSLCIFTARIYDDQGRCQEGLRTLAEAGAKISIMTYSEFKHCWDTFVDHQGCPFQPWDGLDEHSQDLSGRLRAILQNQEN
Sequence of G-protein coupled receptor 55 (Q9Y2T6 whole entry): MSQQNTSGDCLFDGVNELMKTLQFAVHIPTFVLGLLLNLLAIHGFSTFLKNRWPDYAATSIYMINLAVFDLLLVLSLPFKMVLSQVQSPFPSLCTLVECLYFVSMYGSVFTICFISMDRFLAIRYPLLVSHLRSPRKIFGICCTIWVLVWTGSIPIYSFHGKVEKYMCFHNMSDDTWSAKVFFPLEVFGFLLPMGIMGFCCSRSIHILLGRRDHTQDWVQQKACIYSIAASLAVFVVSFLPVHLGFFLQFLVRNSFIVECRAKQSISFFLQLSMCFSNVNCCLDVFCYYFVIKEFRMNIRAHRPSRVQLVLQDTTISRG
Sequence of Cytochrome P450 2C9 (P11712 whole entry): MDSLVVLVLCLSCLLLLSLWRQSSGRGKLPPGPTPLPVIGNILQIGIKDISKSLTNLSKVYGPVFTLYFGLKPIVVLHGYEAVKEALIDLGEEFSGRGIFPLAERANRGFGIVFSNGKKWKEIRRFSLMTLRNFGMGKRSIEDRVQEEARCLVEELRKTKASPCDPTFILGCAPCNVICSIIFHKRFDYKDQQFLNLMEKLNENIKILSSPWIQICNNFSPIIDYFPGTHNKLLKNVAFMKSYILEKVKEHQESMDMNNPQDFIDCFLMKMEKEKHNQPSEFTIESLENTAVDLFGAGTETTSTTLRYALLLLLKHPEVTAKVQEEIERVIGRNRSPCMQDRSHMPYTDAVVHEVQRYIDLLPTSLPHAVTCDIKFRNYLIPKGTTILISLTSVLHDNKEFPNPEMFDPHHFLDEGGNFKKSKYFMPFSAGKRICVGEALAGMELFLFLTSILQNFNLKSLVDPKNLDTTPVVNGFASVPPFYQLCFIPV

With COc1ccc(N2C(=O)NC(=O)/C(=C\c3c[nH]c4ccc(Br)cc34)C2=O)c(OC)c1 the EC50 [1] was > 300 µM (inconclusive), the EC50 [2] was > 300 µM (inconclusive) and the IC50 [3] was 1.66 µM (active).

For Cc1ccc(OCC(=O)Nc2ccc(S(=O)(=O)N(C)C3CCN(C)CC3)cc2)c(C)c1, the EC50 [4] was 320 nM (active), the EC50 [5] was > 60 µM (not active) and the IC50 [6] was 3.31 µM (active). The IC50 [7] was 6.95 µM (active).

For O=C(O)c1cccc(-n2cccc2/C=C2/NC(=O)N(Cc3ccccc3F)C2=O)c1, the IC50 (Leucine aminopeptidase) was 53.2 µM (active), the EC50 [1] was > 300 µM (not active) and the EC50 [2] was > 300 µM (not active). For the same molecule, the IC50 [6] was 14.9 µM (active) and the IC50 [7] was 42.9 µM (active).

For O=C(OCn1ncc(Cl)c(Cl)c1=O)c1cccc(C(F)(F)F)c1, the EC50 [8] was 5.31 µM (inconclusive), the EC50 [9] was 781 nM (active) and the CC50 [10] was 8.16 µM (active). For the same molecule, the AC50 [11] was 1.44 µM (active), the AC50 [12] was 4.11 µM (active) and the EC50 (Protein RecA) was 190 nM (active). The AC50 [13] was 3.74 µM (active), the AC50 [14] was 49.7 µM (active) and the AC50 [15] was 7.88 µM (active). The AC50 (Cytochrome P450 2C9) was “inconclusive”.
